This assay deals with T1, human PARD-1 (Poly (ADP-Ribose) Polymerase-1) (Homo sapiens, UniProt P09874).
T1 construct: purchased Trevigen Inc., Gaithersburg, Md
Briefly: Poly (ADP-Ribose) Polymerase-1 in vitro enzyme assay (Universal Colorimetric Assay Kit, Trevigen). The format is biochemical. To be noted: letter codes; read-out: extent of inhibition of PARP activity (IC50, micromolar). The method, then: Poly (ADP-Ribose) Polymerase-1 (PARD-1) In Vitro Enzyme Assay: Compounds were screened for inhibitory activity against human PARD-1 in vitro using the Universal Colorimetric PARD Assay Kit (Trevigen Inc., Gaithersburg, Md.) as directed by the supplier. Compounds are assayed in duplicate in 0.5% DMSO final concentration, negative control is no enzyme, while positive control is DMSO vehicle alone. IC50 determinations are made using Microsoft Excel. For all cell assays, compounds are added to cells in 5% DMSO/PBS for a final concentration of 0.5% DMSO.

Each structure is given as a SMILES string.

T1 sequence (P09874 whole entry): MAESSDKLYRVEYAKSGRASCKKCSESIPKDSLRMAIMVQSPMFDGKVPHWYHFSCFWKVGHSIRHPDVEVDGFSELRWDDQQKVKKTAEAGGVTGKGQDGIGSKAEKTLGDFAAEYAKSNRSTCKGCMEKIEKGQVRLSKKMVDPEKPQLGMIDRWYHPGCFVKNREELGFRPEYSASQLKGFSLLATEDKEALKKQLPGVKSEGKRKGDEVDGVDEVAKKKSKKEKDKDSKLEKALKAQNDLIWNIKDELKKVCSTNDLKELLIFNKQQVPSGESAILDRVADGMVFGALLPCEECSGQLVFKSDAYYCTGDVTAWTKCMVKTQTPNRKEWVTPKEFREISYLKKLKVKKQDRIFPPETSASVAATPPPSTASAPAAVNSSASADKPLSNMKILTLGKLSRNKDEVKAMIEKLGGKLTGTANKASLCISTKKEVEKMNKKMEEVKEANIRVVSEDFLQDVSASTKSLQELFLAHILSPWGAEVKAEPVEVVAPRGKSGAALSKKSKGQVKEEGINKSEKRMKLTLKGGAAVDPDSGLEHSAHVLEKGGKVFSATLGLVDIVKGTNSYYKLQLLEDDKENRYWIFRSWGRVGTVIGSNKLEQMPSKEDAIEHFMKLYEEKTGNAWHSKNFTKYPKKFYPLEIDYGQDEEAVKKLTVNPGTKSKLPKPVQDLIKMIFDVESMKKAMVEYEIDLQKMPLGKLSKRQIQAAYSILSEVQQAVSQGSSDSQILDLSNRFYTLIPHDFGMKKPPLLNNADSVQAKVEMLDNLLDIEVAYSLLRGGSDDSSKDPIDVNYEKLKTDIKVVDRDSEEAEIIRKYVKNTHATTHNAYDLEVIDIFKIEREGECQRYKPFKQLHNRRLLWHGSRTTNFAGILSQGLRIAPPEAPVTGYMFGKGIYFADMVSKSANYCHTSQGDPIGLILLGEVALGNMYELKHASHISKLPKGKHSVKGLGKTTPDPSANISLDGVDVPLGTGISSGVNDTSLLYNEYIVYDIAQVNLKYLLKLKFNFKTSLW

Turning to `Nc1cc(-c2n[nH]c(=O)c3ccccc23)ccc1N1CCN(CCCO)CC1` [4-(3-amino-4-(4-(3-hydroxypropyl)piperazin-1-yl)phenyl)phthalazin-1(2H)-one], the half-maximal inhibitory concentration (IC50) lay within 0.001 to 0.1 µM.
For the molecule `Nc1cc(-c2n[nH]c(=O)c3ccccc23)ccc1N1CCN(CC2CCCO2)CC1` (centres unmarked) [4-(3-amino-4-(4-((tetrahydrofuran-2-yl)methyl)piperazin-1-yl)phenyl)phthalazin-1(2H)-one], the IC50 lay within 0.1 to 1 µM.
Next, `Nc1cc(-c2n[nH]c(=O)c3ccccc23)ccc1N1CCN(CC2CCCCC2)CC1` [4-(3-amino-4-(4-(cyclohexylmethyl)piperazin-1-yl)phenyl)phthalazin-1(2H)-one]: 0.001 to 0.1 µM; `Nc1cc(-c2n[nH]c(=O)c3ccccc23)ccc1N1CCN(CC2CC2)CC1` [4-(3-amino-4-(4-(cyclopropylmethyl)piperazin-1-yl)phenyl)phthalazin-1(2H)-one]: 0.001 to 0.1 µM.
The value for `Nc1cc(-c2n[nH]c(=O)c3ccccc23)ccc1N1CCN(Cc2cccnc2)CC1` [4-(3-amino-4-(4-(pyridin-3-ylmethyl)piperazin-1-yl)phenyl)phthalazin-1(2H)-one] was 0.001 to 0.1 µM.
The value for `Nc1cc(-c2n[nH]c(=O)c3ccccc23)ccc1N1CCN(c2ccncc2)CC1` [4-(3-amino-4-(4-(pyridin-4-yl)piperazin-1-yl)phenyl)phthalazin-1(2H)-one] was 0.001 to 0.1 µM; that for `Nc1cc(-c2n[nH]c(=O)c3ccccc23)ccc1N1CCN(Cc2ccncc2)CC1` [4-(3-amino-4-(4-(pyridin-4-ylmethyl)piperazin-1-yl)phenyl)phthalazin-1(2H)-one] was 0.001 to 0.1 µM; that for `Nc1cc(-c2n[nH]c(=O)c3ccccc23)ccc1N1CCN(Cc2ccccc2)CC1` [4-(3-amino-4-(4-benzylpiperazin-1-yl)phenyl)phthalazin-1(2H)-one] was 0.1 to 1 µM.
Turning to `Nc1cc(-c2n[nH]c(=O)c3ccccc23)ccc1N1CCN(C2CCCC2)CC1` [4-(3-amino-4-(4-cyclopentylpiperazin-1-yl)phenyl)phthalazin-1(2H)-one], the concentration for half-maximal inhibition (IC50) lay within 0.001 to 0.1 µM.
Next, `Nc1cc(-c2n[nH]c(=O)c3ccccc23)ccc1N1CCN(C2CC2)CC1` [4-(3-amino-4-(4-cyclopropylpiperazin-1-yl)phenyl)phthalazin-1(2H)-one]: 0.001 to 0.1 µM; `CCN1CCN(c2ccc(-c3n[nH]c(=O)c4ccccc34)cc2N)CC1` [4-(3-amino-4-(4-ethylpiperazin-1-yl)phenyl)phthalazin-1(2H)-one]: 0.001 to 0.1 µM; `Nc1cc(-c2n[nH]c(=O)c3ccccc23)ccc1N1CCN(C(=O)c2ccncc2)CC1` [4-(3-amino-4-(4-isonicotinoylpiperazin-1-yl)phenyl)phthalazin-1(2H)-one]: 0.1 to 1 µM.
The value for `CC(C)N1CCN(c2ccc(-c3n[nH]c(=O)c4ccccc34)cc2N)CC1` [4-(3-amino-4-(4-isopropylpiperazin-1-yl)phenyl)phthalazin-1(2H)-one] was 0.001 to 0.1 µM.
Regarding `CN1CCN(c2ccc(-c3n[nH]c(=O)c4ccccc34)cc2N)CC1` [4-(3-amino-4-(4-methylpiperazin-1-yl)phenyl)phthalazin-1(2H)-one], the 50% inhibitory concentration (IC50) was in the range of 0.001 to 0.1 µM.
Turning to `CC(C)(C)N1CCN(c2ccc(-c3n[nH]c(=O)c4ccccc34)cc2N)CC1` [4-(3-amino-4-(4-tert-butylpiperazin-1-yl)phenyl)phthalazin-1(2H)-one], the IC50 was 0.001 to 0.1 µM.
The value for `Nc1cc(-c2n[nH]c(=O)c3ccccc23)ccc1N1CCNCC1` [4-(3-amino-4-(piperazin-1-yl)phenyl)phthalazin-1(2H)-one] was 0.001 to 0.1 µM; that for `CC(=O)Nc1cc(-c2n[nH]c(=O)c3ccccc23)ccc1N1CCN(C(C)=O)CC1` [N-(2-(4-acetylpiperazin-1-yl)-5-(4-oxo-3,4-dihydrophthalazin-1-yl)phenyl)acetamide] was 1 to 5 µM.
The value for `CCN1CCN(c2ccc(-c3n[nH]c(=O)c4ccccc34)cc2NC(C)=O)CC1` [N-(2-(4-ethylpiperazin-1-yl)-5-(4-oxo-3,4-dihydrophthalazin-1-yl)phenyl)acetamide] was 1 to 5 µM; that for `CCN1CCN(c2ccc(-c3n[nH]c(=O)c4ccccc34)cc2NC(=O)C(C)(C)C)CC1` [N-(2-(4-ethylpiperazin-1-yl)-5-(4-oxo-3,4-dihydrophthalazin-1-yl)phenyl)pivalamide] was over 5 µM; that for `CC(=O)Nc1cc(-c2n[nH]c(=O)c3ccccc23)ccc1N1CCN(C(C)C)CC1` [N-(2-(4-isopropylpiperazin-1-yl)-5-(4-oxo-3,4-dihydrophthalazin-1-yl)phenyl)acetamide] was 1 to 5 µM.
The value for `CN1CCN(c2ccc(-c3n[nH]c(=O)c4ccccc34)cc2NC(=O)Cc2cccs2)CC1` [N-(2-(4-methylpiperazin-1-yl)-5-(4-oxo-3,4-dihydrophthalazin-1-yl)phenyl)-2-(thiophen-2-yl)acetamide] was 1 to 5 µM; that for `CC(=O)Nc1cc(-c2n[nH]c(=O)c3ccccc23)ccc1N1CCN(C)CC1` [N-(2-(4-methylpiperazin-1-yl)-5-(4-oxo-3,4-dihydrophthalazin-1-yl)phenyl)acetamide] was 0.1 to 1 µM; that for `CN1CCN(c2ccc(-c3n[nH]c(=O)c4ccccc34)cc2NC(=O)c2ccc3c(c2)OCO3)CC1` [N-(2-(4-methylpiperazin-1-yl)-5-(4-oxo-3,4-dihydrophthalazin-1-yl)phenyl)benzo[d][1,3]dioxole-5-carboxamide] was 0.1 to 1 µM.
As to `CN1CCN(c2ccc(-c3n[nH]c(=O)c4ccccc34)cc2NC(=O)C2CCCCC2)CC1` [N-(2-(4-methylpiperazin-1-yl)-5-(4-oxo-3,4-dihydrophthalazin-1-yl)phenyl)cyclohexanecarboxamide], the IC50 fell in the range of 0.1 to 1 µM.
On to `CN1CCN(c2ccc(-c3n[nH]c(=O)c4ccccc34)cc2NC(=O)c2ccco2)CC1` [N-(2-(4-methylpiperazin-1-yl)-5-(4-oxo-3,4-dihydrophthalazin-1-yl)phenyl)furan-2-carboxamide], for which the IC50 lay in the range of 0.1 to 1 µM.
`CC(C)C(=O)Nc1cc(-c2n[nH]c(=O)c3ccccc23)ccc1N1CCN(C)CC1` [N-(2-(4-methylpiperazin-1-yl)-5-(4-oxo-3,4-dihydrophthalazin-1-yl)phenyl)isobutyramide]: the half-inhibitory concentration (IC50) is 1 to 5 µM.
Next, `CN1CCN(c2ccc(-c3n[nH]c(=O)c4ccccc34)cc2NC(=O)C(C)(C)C)CC1` [N-(2-(4-methylpiperazin-1-yl)-5-(4-oxo-3,4-dihydrophthalazin-1-yl)phenyl)pivalamide]: over 5 µM; `CN1CCN(c2ccc(-c3n[nH]c(=O)c4ccccc34)cc2NC(=O)NC(=O)c2ccccc2)CC1` [N-(2-(4-methylpiperazin-1-yl)-5-(4-oxo-3,4-dihydrophthalazin-1-yl)phenylcarbamoyl)benzamide]: 0.1 to 1 µM; `CC(=O)Nc1cc(-c2n[nH]c(=O)c3ccccc23)ccc1N1CCN(C(C)(C)C)CC1` [N-(2-(4-tert-butylpiperazin-1-yl)-5-(4-oxo-3,4-dihydrophthalazin-1-yl)phenyl)acetamide]: 1 to 5 µM.
With `CC(C)(C)C(=O)Nc1cc(-c2n[nH]c(=O)c3ccccc23)ccc1N1CCN(C(C)(C)C)CC1` [N-(2-(4-tert-butylpiperazin-1-yl)-5-(4-oxo-3,4-dihydrophthalazin-1-yl)phenyl)pivalamide], the IC50 was over 5 µM.
The value for `COC(=O)C(=O)Nc1cc(-c2n[nH]c(=O)c3ccccc23)ccc1N1CCN(C)CC1` [methyl 2-(2-(4-methylpiperazin-1-yl)-5-(4-oxo-3,4-dihydrophthalazin-1-yl)phenylamino)-2-oxoacetate] was 0.1 to 1 µM.
For the molecule `CC(C)(C)OC(=O)CN1CCN(c2ccc(-c3n[nH]c(=O)c4ccccc34)cc2N)CC1` [tert-butyl 2-(4-(2-amino-4-(4-oxo-3,4-dihydrophthalazin-1-yl)phenyl)piperazin-1-yl)acetate], the concentration for half-maximal inhibition (IC50) is 0.1 to 1 µM.

The term IC50 denotes the concentration needed to halve the response being measured.

These data come from patent US20110098304A1, “Small molecule inhibitors of PARP activity” (priority 2009, published 2011).
